Source: patent US12214009B2, “Compositions and methods for improving bruising and rejuvenating skin” (Alastin Skincare, Inc., priority 2019, dated 2025)

Columns and labels:
[1] = tested on: macrophages (RAW-Difluo mLC3 autophagy reporter cells) phagocytosing human red blood cells; test: Macrophage phagocytosis of red blood cells (heme absorbance); format: cell-based; settings: FIG. 6; 24 h; peptide alone; tripeptide-1 2.9 ug/mL, hexapeptide-11 100 ug/mL, hexapeptide-12 2.9 ug/mL
Protocol: The assay was performed according to manufacturer's instructions (Cell BioLabs, Inc.). Macrophages used were RAW-Difluo mLC3 autophagy reporter cells. Human red blood cells (RBCs) were obtained from ZenBio (catalog number SER-10MLRBC). Briefly, 24 hours before the assay, macrophages were plated on 96-well plates. One plate was plated with 12,500 macrophages and a second plate with 25,000 macrophages. The day of the assay, human red blood cells (RBCs) were opsonized with human RBC antibody. As a negative control, sheep RBCs were opsonized with human RBC antibody. The media was then replaced with either peptide or no peptide. Blood was added to the plates at a 200:1 RBC to macrophage ratio. Phagocytosis was measured beginning at 2 hours after blood was added. The media and blood were removed from the wells of the plate. The plate was washed once with RBC lysis buffer to remove non-phagocytosed RBCs followed by two washes with PBS. Macrophage lysis buffer was then added to the plate and the lysed solution was transferred to a 96-well plate. The substrate solution to detect heme was added to the 96-well plate and absorbance was recorded at 1 minute, 5 minutes, 10, minutes, and 20 minutes. FIGS. 1B-1C show images of macrophage phagocytosis prior to red blood cell (RBC) washout (FIG. 1B) and after RBC washout (FIG. 1C). Arrows indicate macrophages with RBCs (hollow circles). […]

[2] = tested on: dermal and epidermal hyaluronic acid level; settings: ex vivo human skin model; cited from earlier work
[3] = Penetration ability log Kow; format: physicochemical
Protocol: A water suspension of liposomes was prepared with 1.5% of hydrophilic molecule A or 300 ppm (0.03%) hydrophilic molecule B, and 27% Pro-Lipo™ Neo. […] Molecule B was a hexapeptide (hexapeptide-38) with a molecular weight of (870 g/mol) and a penetration ability log Kow of −1.13. A water solution with 1.5% A or 300 ppm B was used as a control (non-entrapped molecule).

tripeptide-1
phagocytosis relative to NT control [1]: decrease or no change

CCCCCCCC(=O)CCc1ccc(O)c(OC)c1 [Hydroxymethoxyphenyl decanone]
stimulation of dermal hyaluronic acid level versus placebo [2]: 259%
stimulation of epidermal hyaluronic acid level versus placebo [2]: 198%

Cn1c(=O)c2c(ncn2C)n(C)c1=O [Molecule A, caffeine]
penetration ability log Kow [3]: −0.07

hexapeptide-11
phagocytosis relative to NT control [1]: decrease or no change
